One block for each compound: values may come before it.
Legend:
[1] = cited from earlier work
[2] = Stabilization experiments with LECIGON, accelerated stability study at 25° C. for 12 days; assay type: physicochemical; details: all combinations of Table 6
Procedure: HPLC—Agilent 1100 with DAD detector and cooled injector; OpenLAB CDS Chemstation C.01.05 (Agilent Technologies Inc., Santa Clara, Calif., U.S.A.).
As reference product, LECIGON™ having no stabilizing modification was used.
The following stabilizing modifications of the LECIGON™ composition were tested, the corresponding experimental compositions (“Exp.”) in Table 4 above being given within parentheses:
• a) 0.1% ascorbic acid (Exp. 5) • b) 0.5% citrate buffer (Exp. 12) • c) 0.5% citric acid (Exp. 4) 3. Removal of oxygen • nitrogen gas (Exp. 15) 4. Removal of metal ions • 0.05% EDTA (Exp. 3) 5. Combination of reduced pH and anti-oxidant (Exp. 13) 6. Combination of anti-oxidant and removal of oxygen • a) 0.1% ascorbic acid and 0.05% EDTA (Exp. 14) • b) 0.5% citric acid and 0.05% EDTA (Exp. 10) 7. Enclosure in an aluminium bag (Exp. 8).
The results are ranked with respect to reduction of hydrazine (DHPA, RRT 7.1). […] Levodopa was stable in all combinations and is therefore not included in the table. In the table, “Carb” is carbidopa, and “Ent” is entacapone.

[3] = cited from earlier work; remark: listed apart in the source
[4] = intravenous administration (3 mg/kg); cited from earlier work

Structure (SMILES): C[C@@](Cc1ccc(O)c(O)c1)(NN)C(=O)O [Carbidopa, (−)-L-α-hydrazino-α-methyl-β-(3,4-dihydroxybenzene) propanoic acid monohydrate]
- solubility in water [1]: slightly soluble in water

- Stability of levodopa in the gel combinations [2]: stable
Structure (SMILES): N[C@@H](Cc1ccc(O)c(O)c1)C(=O)O [Levodopa, (−)-L-α-amino-β-(3,4-dihydroxybenzene) propanoic acid]
- metabolized to dopamine before levodopa reaches the brain ([3]; intake of levodopa alone): more than 90%
- bioavailability ([3]; levodopa via DUODOPA gel, same as in a tablet): 81-98%
- solubility in water [1]: slightly soluble in water

Structure (SMILES): Cc1ccc(C(=O)c2cc(O)c(O)c([N+](=O)[O-])c2)cc1 [Tolcapone, (3,4-Dihydroxy-5-nitrophenyl)(4-methylphenyl)methanone]
- elimination half-life (t1/2β) [4]: 2.9 h
